One may read the IC50 as the concentration that inhibits the measured activity by half.

Experimental findings from PubChem BioAssay AID651874 (Southern Research Specialized Biocontainment Screening …, 2012) are described below.

The test system of the assay is VEEV TrD infected cells, viral cytopathic effect inhibition. The experiment in a line: VEEV TrD cytopathic effect inhibition, confirmation, cell-based, Trinidad donkey strain, set 2 (AID 651874).

SMILES strings stand for the structures.

Take `COc1cccc(-n2c(CN3CCNCC3)nc3ccc([N+](=O)[O-])cc3c2=O)c1`: the IC50 is 5630 nM.
`CCN1CCN(C)CC1=Nc1ccc([N+](=O)[O-])cc1C(=O)Nc1ccccc1`: the IC50 was 34 nM.
On to `COc1ccc(NC(=O)c2cc([N+](=O)[O-])ccc2N=C2CN(C)CCN2C)cc1`, for which the half-inhibitory concentration (IC50) was 45 nM.
Regarding `CCN1CCN(Cc2nc3ccc(C#N)cc3c(=O)n2-c2ccccc2)CC1`, the IC50 was 1090 nM.
On to `O=c1c2cc([N+](=O)[O-])ccc2nc(CN2CCNCC2)n1-c1ccccc1`, for which the IC50 is 86 nM.
For `CCN1CCN(Cc2nc3ccc([N+](=O)[O-])cc3c(=O)n2-c2ccccc2F)CC1` the value was 557 nM; for `CCN1CCN(Cc2nc3ccc([N+](=O)[O-])cc3c(=O)n2-c2ccc(F)cc2)CC1`, 605 nM; for `CN1CCN(C)C(=Nc2ccc(C#N)cc2C(=O)Nc2ccccc2)C1`, 319 nM.
`CN1CCN(C)C(=Nc2ccc(C#N)cc2C(=O)Nc2cccc(F)c2)C1`: the half-inhibitory concentration (IC50) was 823 nM.
In the case of `CCN1CCN(Cc2nc3ccc([N+](=O)[O-])cc3c(=O)n2-c2ccccc2)CC1`, the IC50 is 241 nM.
For `COc1ccc(-n2c(CN3CCNCC3)nc3ccc([N+](=O)[O-])cc3c2=O)cc1`, the IC50 was 96.6 nM.
Turning to `CN1CCN(C)C(=Nc2cc(Cl)c(C#N)cc2C(=O)Nc2ccccc2)C1`, the IC50 was 113 nM.
Regarding `CCN1CCN(Cc2nc3ncc([N+](=O)[O-])cc3c(=O)n2-c2ccccc2)CC1`, the IC50 was 3080 nM.
Turning to `CN1CCN(Cc2nc3ccc([N+](=O)[O-])cc3c(=O)n2-c2ccccc2F)CC1`, the IC50 was 139 nM.
For `CN1CCN(C)C(=Nc2ccc([N+](=O)[O-])cc2C(=O)Nc2ccccc2F)C1` the value was 158 nM; for `CCN1CCN(Cc2nc3ccc([N+](=O)[O-])cc3c(=O)n2-c2cccc(F)c2)CC1`, 278 nM; for `CNCCCN(C)Cc1nc2ccc([N+](=O)[O-])cc2c(=O)n1-c1ccccc1`, 405 nM.
With `CN1CCN(C)C(=Nc2ccc([N+](=O)[O-])cc2C(=O)Nc2ccccc2)C1`, the IC50 was 40.1 nM.
Regarding `O=c1c2cc([N+](=O)[O-])ccc2nc(CN2CCNCC2)n1-c1ccsc1`, the half-maximal inhibitory concentration (IC50) is 905 nM.
For `O=c1c2cc([N+](=O)[O-])ccc2nc(CN2CCNCC2)n1-c1ccccc1F` the value was 148 nM.
